Results taken from patent US8404696B2, “Quinazoline-2,4-dione derivative, and medical compositions for the prophylaxis and treatment of cranial nerve disease containing the same” (Shin Poong Pharmaceutical Co., Ltd., priority 2008, dated 2013).
Values after ≈ are worked out from the molar mass of the structure shown.

What was measured:
[1] = system: pentylentetrazole (PTZ)-induced convulsion; assay: Anti-convulsant effect, pentylentetrazole (PTZ) test; format: in vivo; conditions: 10 mg/kg intraperitoneally, PTZ 80 mg/kg subcutaneously
In short: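 Compound was given intraperitoneally at 10 mg/kg before PTZ challenge. The read-outs were time to convulsion onset, time until convulsions fully disappeared, and mortality.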

[2] = system: thoracic aorta of rats; assay: Relaxing effect on thoracic aorta contracted by phenylephrine (organ bath); set-up: species or system rats of SD species; conditions: for Relaxation percentage (Mean ± standard deviation): n = 3
In short: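 Thoracic aortic rings (2 mm) from ether-anesthetized male SD rats (250-300 g) were mounted in Krebs buffer gassed with 95% O2/5% CO2 and equilibrated at 1.0 g basal tension for 90 min. After stable contraction with phenylephrine (0.5 μM), compounds were added and relaxation recorded.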

[3] = system: mouse brain cells; assay: Inhibitory effect on ROS production in brain cells (DCF-DA, NMDA-induced); format: cell-based
[4] = system: mixed culture of nerve cells-glial cells; assay: Protecting effect on NMDA-induced nerve cell death (LDH release); format: cell-based, ICR mouse; conditions: 100 μM NMDA, LDH release after 24 hours
In short: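 Embryonic day-14 ICR mouse cortical neurons seeded on cortical glia, Ara-C-treated, then exposed at day 12–15 for 20 min to 100 μM NMDA with compound at 1 or 2 μg/mL. LDH released 24 h later measured colorimetrically as a cell-death index.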

[5] = system: middle cerebral artery occlusion (MCAO) model; assay: Anti-stroke effect in middle cerebral artery occlusion (MCAO) model, oral administration before inducing stroke; format: in vivo, rats of SD species; conditions: 100 mg/kg po; for Infarcted volume (Mean ± standard deviation): negative control 0.45 ± 0.03
[6] = treatment time 0 (right before inducing ischemic stroke)
[7] = treatment time 1 (an hour before inducing ischemic stroke)

## CC(=O)N(CCCCNCCCn1c(=O)[nH]c2ccccc2c1=O)CCCn1c(=O)[nH]c2ccccc2c1=O [Compound 3, N-[3-(2,4-dioxo-1,4-dihydro-2H-quinazolin-3-yl)propyl]-N-{4-[3-(2,4-dioxo-1,4-dihydro-2H-quinazolin-3-yl)propylamino]butyl}acetamide]
[1]; (animals/total), negative control 70(17/23)
  mortality rate: 17(2/12) %
[1]; (animals/total), negative control 100(23/23)
  Induction percentage of convulsion: 50(6/12) %
[1]; negative control 5.0 ± 0.7
  Initiation time of convulsion: 34.7 ± 7.7 min
[1]; negative control 46.7 ± 3.3
  Duration of convulsion: 11.8 ± 5.6 min
[2]; 50 μg/mL, phenylephrine 0.5 μM
  Relaxation percentage (Mean ± standard deviation): 16.2 ± 4.4%
[2]; 100 μg/mL, phenylephrine 0.5 μM
  Relaxation percentage (Mean ± standard deviation): 44.2 ± 8.5%
[2]; 200 μg/mL, phenylephrine 0.5 μM
  Relaxation percentage (Mean ± standard deviation): 65.6 ± 7.1%
[2]; 50, 100 and 200 μg/mL
  Relaxation of thoracic aorta contracted by phenylephrine, dose dependence: dose-dependently relaxed the thoracic aorta of rats contracted by phenylephrine
[2]; Rattus norvegicus, 67 μg/mL, phenylephrine 0.5 μM, mean n = 3, read-out: Relaxation percentage
  inhibition at 67 µg/mL: 27.4%
[3]; 125 μg/ml and 250 μg/ml, 300 μM NMDA, 24 hours, FIG. 2
  Suppression of oxidative stress induced by NMDA (DCF fluorescence): suppressed the oxidative stress induced by NMDA of nerve cells in a dose-dependent manner
[3]; 24 h, dose suppressing 50% of production of reactive oxygen compared to control, mouse brain cells, read-out: ROS inhibitory effect ID50
  IC50: 108 ± 27.2 mg/L (≈ 203 µM)
[4]; 1 μg/ml compound
  Inhibitory effect of cell death by NMDA-induced excitable neurotoxicity: 45.5%
[4]; 2 μg/ml compound
  Inhibitory effect of cell death by NMDA-induced excitable neurotoxicity: 54.4%
[5]; [6]
  Inhibitory percentage compared to negative control: 69.8%
  Infarcted volume (Mean ± standard deviation): 0.14 ± 0.02 cm^3
[5]; [7]
  Inhibitory percentage compared to negative control: 22.3%
  Infarcted volume (Mean ± standard deviation): 0.35 ± 0.07 cm^3
